# According to patent publication US6914045B2, “Glycopeptide antibiotics” (Wyeth Holdings Corporation, priority 2001, dated 2005):
# What was measured:
# Experiment in all cases: in vitro antibacterial evaluation, MIC by broth dilution
# Type in all cases: cell-based
# Escherichia coli = conditions: 18 hours at 35° C.
# Description: (§1) The minimum inhibitory concentration (MIC), the lowest concentration of the antibiotic which inhibits growth of the test organism, is determined by the broth dilution method using Muller-Hinton II […] (Baltimore Biological Laboratories) following the recommendations of the National Committee for Clinical Laboratory Standards [Methods for dilution antimicrobial susceptibility tests for bacteria that grow aerobically, approved standard M7-A2, National Committee for Clinical Laboratory Standards, Villanova, Pa.].
# (§2) An inoculum level of 5×10^5 CFU/mL, and a range of antibiotic concentrations (64-0.06 μg/mL) is used. […] The test organisms include a spectrum of Gram-positive bacteria comprised of Staphylococcus sp., Streptococcus sp. and Enterococcus sp. These organisms include recent clinical isolates that are resistant to methicillin, penicillin and/or vancomycin.
# Staphylococcus sp. = conditions: broth dilution, 18 hours at 35° C.; for MIC Staphylococcus aureus (ATCC 29213): strain ATCC 29213; for MIC Staphylococcus aureus (GC 1131): strain GC 1131; for MIC Staphylococcus aureus (GC 4535): strain GC 4535; for MIC Staphylococcus aureus-SMITH (GC 4536): strain GC 4536
# Description: (§3) Methods for in vitro Antibacterial Evaluation (Table 1)
# as §1, §2
# Enterococcus sp. = conditions: broth dilution, 18 hours at 35° C.
# Description: as §3, §1, §2
# [1] = Enterococcus faecalis (ATCC 29212)
# [2] = Enterococcus faecalis (GC 2242)
# [3] = Enterococcus faecalis (GC 4552)
Compound,MIC Escherichia coli (GC 4559) (Escherichia coli),MIC Escherichia coli (GC 4560) (Escherichia coli),MIC Coagulase Negative Staphylococcus (GC 4537) (Staphylococcus sp.),MIC Coagulase Negative Staphylococcus (GC 4538) (Staphylococcus sp.),MIC Coagulase Negative Staphylococcus (GC 4547) (Staphylococcus sp.),MIC Coagulase Negative Staphylococcus (GC 4537) (Staphylococcus sp.; strain GC 4537),MIC Coagulase Negative Staphylococcus (GC 4538) (Staphylococcus sp.; strain GC 4538),MIC Coagulase Negative Staphylococcus (GC 4547) (Staphylococcus sp.; strain GC 4547),MIC Staphylococcus aureus (ATCC 29213) (Staphylococcus sp.),MIC Staphylococcus aureus (GC 1131) (Staphylococcus sp.),MIC Staphylococcus aureus (GC 4535) (Staphylococcus sp.),MIC Staphylococcus aureus-SMITH (GC 4536) (Staphylococcus sp.),MIC Enterococcus faecalis (ATCC 29212) (Enterococcus sp.; [1]),MIC Enterococcus faecalis (GC 2242) (Enterococcus sp.; [2]),MIC Enterococcus faecalis (GC 4552) (Enterococcus sp.; [3]),MIC Enterococcus faecalis (ATCC 29212) (Enterococcus sp.),MIC Enterococcus faecalis (GC 2242) (Enterococcus sp.),MIC Enterococcus faecalis (GC 4552) (Enterococcus sp.)
"CCCCCCC(=O)OCC1OC(N2C(=N)NCC2C(O)C2NC(=O)C(C(O)C3CNC(=N)N3)NC(=O)C(Cc3ccc(OC4OC(CO)C(OC5OC(CO)C(O)C(O)C5O)C(O)C4O)cc3)NC(=O)C(C(C)c3ccccc3)NC(=O)CNC(=O)C(CO)NC2=O)C(O)C(O)C1O (stereo not drawn) [Example 97, Cyclo[glycyl-β-methylphenylalanyl-O-(4-O-hexopyranosylhexolpyranosyl)tyrosyl-3-(2-iminoimidazolidin-4-yl)seryl-3-[3-(6-O-heptanoylhexopyranosyl)-2-iminoimidazolidin-4-yl]seryl-seryl]]",>64 µg/mL,2 µg/mL,>64 µg/mL,>64 µg/mL,>64 µg/mL,>64 µg/mL,>64 µg/mL,>64 µg/mL,>64 µg/mL,>64 µg/mL,>64 µg/mL,>64 µg/mL,>64 µg/mL,>64 µg/mL,>64 µg/mL,>64 µg/mL,>64 µg/mL,>64 µg/mL
"CCCCCCC(=O)OCC1OC(Oc2ccc(CC3NC(=O)C(C(C)c4ccccc4)NC(=O)CNC(=O)C(CO)NC(=O)C(C(O)C4CNC(=N)N4C4OC(CO)C(O)C(O)C4O)NC(=O)C(C(O)C4CNC(=N)N4)NC3=O)cc2)C(O)C(O)C1OC1OC(CO)C(O)C(O)C1O (stereo not drawn) [Example 97a, Cyclo[glycyl-β-methylphenylalanyl-O-(6-O-heptanoyl-4-O-hexopyranosylhexopyranosyl)-tyrosyl-3-(2-iniinoimidazolidin-4-yl)seryl-3-(3-hexopyranosyl-2-iminoimidazolidin-4-yl)-serylseryl]]",>64 µg/mL,1 µg/mL,4 µg/mL,2 µg/mL,2 µg/mL,4 µg/mL,2 µg/mL,2 µg/mL,1 µg/mL,2 µg/mL,2 µg/mL,0.5 µg/mL,8 µg/mL,4 µg/mL,16 µg/mL,8 µg/mL,4 µg/mL,16 µg/mL
CC(c1ccccc1)C1NC(=O)CNC(=O)C(CO)NC(=O)C(C(O)C2CNC(=N)N2C2OC(CO)C(O)C(O)C2O)NC(=O)C(C(O)C2CNC(=N)N2)NC(=O)C(Cc2ccc(OC3OC(COC(=O)Cc4ccccc4)C(OC4OC(CO)C(O)C(O)C4O)C(O)C3O)cc2)NC1=O (stereo not drawn) [Example 98b],>128 µg/mL,2 µg/mL,16 µg/mL,8 µg/mL,8 µg/mL,16 µg/mL,8 µg/mL,8 µg/mL,16 µg/mL,16 µg/mL,16 µg/mL,8 µg/mL,64 µg/mL,64 µg/mL,128 µg/mL,64 µg/mL,64 µg/mL,128 µg/mL
CC(c1ccccc1)C1NC(=O)CNC(=O)C(CO)NC(=O)C(C(O)C2CNC(=N)N2C2OC(CO)C(O)C(O)C2O)NC(=O)C(C(O)C2CNC(=N)N2)NC(=O)C(Cc2ccc(OC3OC(CO)C(OC4OC(COC(=O)Cc5ccccc5)C(O)C(O)C4O)C(O)C3O)cc2)NC1=O (stereo not drawn) [Example 98c],64 µg/mL,0.5 µg/mL,2 µg/mL,1 µg/mL,1 µg/mL,2 µg/mL,1 µg/mL,1 µg/mL,2 µg/mL,2 µg/mL,4 µg/mL,2 µg/mL,16 µg/mL,8 µg/mL,16 µg/mL,16 µg/mL,8 µg/mL,16 µg/mL
